Data as given in PMC7778552, “A Double-Edged Sword: The Anti-Cancer Effects of Emodin by Inhibiting the Redox-Protective Protein MTH1 and Augmenting ROS in NSCLC” (Journal of Cancer, 2021).

Molecular target: T1, MutT homolog 1 (MTH1) (Homo sapiens, UniProt P36639)
T1 construct: gene NUDT1; N-terminal His-tagged, expressed in E. coli BL21-codon plus
Assay: SPR with immobilized purified MTH1 (amine coupling)
Type: binding

Kd: 22.2 ± 0.68 µM
SMILES: Cc1cc(O)c2c(c1)C(=O)c1cc(O)cc(O)c1C2=O [emodin, 1,3,8-trihydroxy-6-methylanthraquinone]
